How the values were obtained:
[1] = biological target: T1, IL-17AA and IL-17RA (Homo sapiens, UniProt Q16552); experiment: Competitive inhibition of human IL-17AA and IL-17RA binding (HTRF); details: recombinant IL-17AA (His-tag) and IL-17RA (hFc-tag); read-out: IC50 for Inhibiting IL-AA/IL-RA Binding
T1 construct: purchased Sino Biological 12047-H07B (IL-17AA); 10895-H02H (IL-17RA)
T1 sequence (Q16552 24-155): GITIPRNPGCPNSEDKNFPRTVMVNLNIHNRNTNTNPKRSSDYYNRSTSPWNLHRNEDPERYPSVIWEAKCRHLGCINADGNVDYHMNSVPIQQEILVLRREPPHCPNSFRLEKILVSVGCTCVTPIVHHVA
Procedure: Example 42. Competitive Inhibition of Human IL-17AA and IL-17RA Binding
Recombinant IL-17AA (His-tag, Catalog Number 12047-H07B) and IL-17RA (hFc-tag, Catalog Number 10895-H02H) were purchased from Sino Biological. In the experiment, 10 μL of IL-17AA (1 nM) or IL-17RA (1 nM) was added to 10 μL of anti-6His-Tb (0.4 nM, Revvity, Catalog Number 61HISTLF) or anti-human IgG-d2 (1 μg/mL, anti-human IgG-d2, Revvity, Catalog Number 61HFCDAF), respectively and incubated at room temperature for 1 hour. Compounds were serially diluted starting from 10 μM. 5 μL of each compound solution was incubated with 5 μL of a mixture of IL-17AA and anti-6His-Tb at room temperature for 2 hours. After pre-incubation, to which was added 10 μL of a mixture of IL-17RA and anti-human IgG-d2, and incubation was continued for additional 20 minutes. Subsequently, a microplate reader (Envision, PerkinElmer) was used to detect fluorescence intensity at 615 nm and 665 nm, and the ratio of intensity thereof indicates the degree of IL-17AA and IL-17RA interaction. The ratio of intensity in the absence of tested compound was the highest value of binding between IL-17AA and IL-17RA, and the ratio of intensity in the absence of IL-17AA was the lowest value.
(§1) Therefore, the percentage of inhibition of tested compound was calculated as
Experimental results were analyzed using XLfit (IDBS) for 4-parameter nonlinear fitting analysis, to provide the IC50 value for each tested compound (Table 1).

[2] = system: IL-17AA-induced IL-17 signaling pathway; experiment: Inhibition of IL-17AA-induced IL-17 signaling pathway in HEK-Blue IL-17 reporter cells (SEAP); format: cell-based; details: Homo sapiens; HEK-Blue IL-17 cells, IL-17AA 2.5 ng/mL, 20 hours; read-out: IC50 for Inhibiting IL-AA Signaling
From the text: Example 43. Inhibition of IL-17AA-Induced IL-17 Signaling Pathway
(§2) Interleukin-17 (IL-17) reporter cell line (HEK-Blue IL-17, InvivoGen, Catalog Number hkb-i117) is created by genetically engineering human IL-17RA/IL-17RC heterodimeric receptor and downstream adapter protein ACT1 into human embryonic kidney 293 cells (HEK293). These cells also express secreted embryonic alkaline phosphatase (SEAP) reporter gene induced by NF-κB and AP-1. Therefore, IL-17AA can activate NF-κB and AP-1 signaling pathways inside the cells by binding to IL-17RA/RC on cell membrane, leading to expression of SEAP protein. After a colorimetric reaction between SEAP protein and Quanti-Blue solution, the absorbance at 620 nm is measured using a microplate reader (BioTek H1M, Agilent, Catalog Number SH1M-SN) to determine IL-17AA-activated signaling pathway.
(§3) In the experiment, HEK-Blue IL-17 cells were cultured at 37° C. under 5% CO2 conditions using the recommended medium from InvivoGen's instruction. Compounds were serially diluted starting from 10 μM. 4 μL of each compound solution was added to 32 μL of cells (10,000 cells) at 37° C. for 1 hour. After pre-incubation, 4 μL of IL-17AA with a final concentration of 2.5 ng/mL (Sino Biological, Catalog Number 12047-HNAS) was added to the cells, and incubation was continued for additional 20 hours. After incubation, 5 μL of cell culture supernatant was added to 45 μL of Quanti-Blue for the colorimetric reaction. The group without tested compound had the highest absorbance at 620 nm, and the group without IL-17AA had the lowest absorbance at 620 nm.
as §1
(§4) Experimental results were analyzed using XLfit (IDBS) for 4-parameter nonlinear fitting analysis to provide the IC50 value for each tested compound (Table 1).

[3] = system: IL-17AF-induced IL-17 signaling pathway; experiment: Inhibition of IL-17AF-induced IL-17 signaling pathway; format: cell-based; details: Homo sapiens; IL-17AF used instead of IL-17AA; read-out: IC50 for Inhibiting IL-AF Signaling
From the text: as §2, §3, §1, §4
Example 44. Inhibition of IL-17AF-Induced IL-17 Signaling Pathway
The same experimental procedure to Example […] was followed where IL-17AF was used instead of IL-17AA.

Row | Compound | IC50 [1] [µM] | IC50 [2] [µM] | IC50 [3] [µM]
1 | CCC(=O)N[C@@H](c1nncn1CC1CC1)[C@@H](C)c1ccc(NC(=O)[C@@H](NC(=O)c2ccnn2CC)C(C2CC2)C2CC2)c(F)c1 [Compound 1, N-((S)-1,1-dicyclopropyl-3-((4-((1R,2S)-1-(4-(cyclopropylmethyl)-4H-1,2,4-triazol-3-yl)-1-propionamidopropan-2-yl)-2-fluorophenyl)amino)-3-oxopropan-2-yl)-1-ethyl-1H-pyrazole-5-carboxamide] | 0.027 | 0.013 | 0.049
2 | CCn1nccc1C(=O)N[C@H](C(=O)Nc1ccc([C@H](C)[C@@H](NC(C)=O)c2nncn2CC2CC2)cc1F)C(C1CC1)C1CC1 [Compound 2, N-((S)-1-((4-((1R,2S)-1-acetamido-1-(4-(cyclopropylmethyl)-4H-1,2,4-triazol-3-yl)propan-2-yl)-2-fluorophenyl)amino)-3,3-dicyclopropyl-1-oxopropan-2-yl)-1-ethyl-1H-pyrazole-5-carboxamide] | 0.012 | 0.05 | 0.099
3 | CCn1nccc1C(=O)N[C@H](C(=O)Nc1ccc([C@H](C)[C@@H](NC(=O)COC)c2nncn2CC2CC2)cc1F)C(C1CC1)C1CC1 [Compound 3, N-((S)-1,1-dicyclopropyl-3-((4-((1R,2S)-1-(4-(cyclopropylmethyl)-4H-1,2,4-triazol-3-yl)-1-(2-methoxyacetamido)propan-2-yl)-2-fluorophenyl)amino)-3-oxopropan-2-yl)-1-ethyl-1H-pyrazole-5-carboxamide] | 0.0073 | 0.0041 | 0.025
4 | COCC(=O)N[C@@H](c1nncn1CC1CC1)[C@@H](C)c1ccc(NC(=O)[C@@H](NC(=O)c2ccnn2C(C)C)C(C2CC2)C2CC2)c(F)c1 [Compound 4, N-((S)-1,1-dicyclopropyl-3-((4-((1R,2S)-1-(4-(cyclopropylmethyl)-4H-1,2,4-triazol-3-yl)-1-(2-methoxyacetamido)propan-2-yl)-2-fluorophenyl)amino)-3-oxopropan-2-yl)-1-isopropyl-1H-pyrazole-5-carboxamide] | 0.01 | 0.017 | 0.02
5 | CCn1nccc1C(=O)N[C@H](C(=O)Nc1ccc([C@H](C)[C@@H](NC(=O)COC)c2nncn2C)cc1F)C(C1CC1)C1CC1 [Compound 6, N-((S)-1,1-dicyclopropyl-3-((2-fluoro-4-((1R,2S)-1-(2-methoxyacetamido)-1-(4-methyl-4H-1,2,4-triazol-3-yl)propan-2-yl)phenyl)amino)-3-oxopropan-2-yl)-1-ethyl-1H-pyrazole-5-carboxamide] | 0.066 | 0.146 | 0.516
6 | COCC(=O)N[C@@H](c1nncn1CC1CC1)[C@@H](C)c1ccc(NC(=O)[C@@H](NC(=O)C(F)(F)c2ccc(OC)nc2)C(C2CC2)C2CC2)c(F)c1 [Compound 7, (S)-3,3-dicyclopropyl-N-(4-((1R,2S)-1-(4-(cyclopropylmethyl)-4H-1,2,4-triazol-3-yl)-1-(2-methoxyacetamido)propan-2-yl)-2-fluorophenyl)-2-(2,2-difluoro-2-(6-methoxypyridin-3-yl)acetamido)propanamide] | 0.0052 | 0.0039 | 0.0089
7 | COCC(=O)N[C@@H](c1nncn1CC1CC1)[C@@H](C)c1ccc(NC(=O)[C@@H](NC(=O)COc2cc(C(F)F)on2)C(C2CC2)C2CC2)c(F)c1 [Compound 8] | 0.013 | 0.035 | 0.073
8 | CCn1nccc1C(=O)N[C@H](C(=O)Nc1ccc([C@H](C)[C@@H](NC(=O)COC)c2nncn2CC2CCOCC2)cc1F)C(C1CC1)C1CC1 [Compound 9, N-((S)-1,1-dicyclopropyl-3-((2-fluoro-4-((1R,2S)-1-(2-methoxyacetamido)-1-(4-((tetrahydro-2H-pyran-4-yl)methyl)-4H-1,2,4-triazol-3-yl)propan-2-yl)phenyl)amino)-3-oxopropan-2-yl)-1-ethyl-1H-pyrazole-5-carboxamide] | 0.016 | 0.031 | 0.133
9 | COCC(=O)N[C@@H](c1nncn1CC1CC1)[C@@H](C)c1ccc(NC(=O)[C@@H](NC(=O)COCC2(C(F)F)COC2)C(C2CC2)C2CC2)c(F)c1 [Compound 10, (S)-3,3-dicyclopropyl-N-(4-((1R,2S)-1-(4-(cyclopropylmethyl)-4H-1,2,4-triazol-3-yl)-1-(2-methoxyacetamido)propan-2-yl)-2-fluorophenyl)-2-(2-((3-(difluoromethyl)oxetan-3-yl)methoxy)acetamido)propanamide] | 0.109 | 0.277 | 1.04
10 | COCC(=O)N[C@@H](c1nncn1CC1CC1)[C@@H](C)c1ccc(NC(=O)[C@@H](NC(=O)C2(F)CC2)C(C2CC2)C2CC2)c(F)c1 [Compound 11, N-((S)-1,1-dicyclopropyl-3-((4-((1R,2S)-1-(4-(cyclopropylmethyl)-4H-1,2,4-triazol-3-yl)-1-(2-methoxyacetamido)propan-2-yl)-2-fluorophenyl)amino)-3-oxopropan-2-yl)-1-fluorocyclopropane-1-carboxamide] | 0.013 | 0.044 | 0.092
11 | CCn1nccc1C(=O)N[C@H](C(=O)Nc1ccc([C@H](C)[C@@H](NC(=O)COC)c2nncn2C2CC2)cc1F)C(C1CC1)C1CC1 [Compound 12, N-((S)-1,1-dicyclopropyl-3-((4-((1R,2S)-1-(4-cyclopropyl-4H-1,2,4-triazol-3-yl)-1-(2-methoxyacetamido)propan-2-yl)-2-fluorophenyl)amino)-3-oxopropan-2-yl)-1-ethyl-1H-pyrazole-5-carboxamide] | 0.049 | 0.091 | 0.32
12 | COCC(=O)N[C@@H](c1nncn1CC1CC1)[C@@H](C)c1ccc(NC(=O)[C@@H](NC(=O)COc2cc(C(F)F)ccn2)C(C2CC2)C2CC2)c(F)c1 [Compound 13, (S)-3,3-dicyclopropyl-N-(4-((1R,2S)-1-(4-(cyclopropylmethyl)-4H-1,2,4-triazol-3-yl)-1-(2-methoxyacetamido)propan-2-yl)-2-fluorophenyl)-2-(2-((4-(difluoromethyl)pyridin-2-yl)oxy)acetamido)propanamide] | 0.04 | 0.067 | 0.216
13 | CCc1nonc1C(=O)N[C@H](C(=O)Nc1ccc([C@H](C)[C@@H](NC(=O)COC)c2nncn2CC2CC2)cc1F)C(C1CC1)C1CC1 [Compound 14, N-((S)-1,1-dicyclopropyl-3-((4-((1R,2S)-1-(4-(cyclopropylmethyl)-4H-1,2,4-triazol-3-yl)-1-(2-methoxyacetamido)propan-2-yl)-2-fluorophenyl)amino)-3-oxopropan-2-yl)-4-ethyl-1,2,5-oxadiazole-3-carboxamide] | 0.0029 | 0.0023 | 0.009
14 | COCC(=O)N[C@@H](c1nncn1CC1CC1)[C@@H](C)c1ccc(NC(=O)[C@@H](NC(=O)COCC2CC2)C(C2CC2)C2CC2)c(F)c1 [Compound 15, (S)-3,3-dicyclopropyl-2-(2-(cyclopropylmethoxy)acetamido)-N-(4-((1R,2S)-1-(4-(cyclopropylmethyl)-4H-1,2,4-triazol-3-yl)-1-(2-methoxyacetamido)propan-2-yl)-2-fluorophenyl)propanamide] | 0.172 | 1.11 | 2.13
